Reference: patent US20250122191A1, “COMPOUNDS AS BCL-2 INHIBITORS” (Fochon Biosciences, Ltd, priority 2021, published 2025)
pIC50: −log10 of the molar value.

Legend:
Type in all cases: cell-based
RS4;11-BCL-2 D103E cells = assay: Cell proliferation assay (MTS), RS4;11-BCL-2 D103E engineered cells; settings: Homo sapiens, 72 h, read-out: RS4, 11 BCL2-D103E IC50
In short: (§1)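 Cells were plated, allowed to settle 4 h (G101V, F104L) or 24 h (D103E, D103Y), and treated with serially diluted compound (10000 down to 1.5 nM). After 120 h or 72 h respectively at 37 °C, MTS was added for 2 h and absorbance at 490 nm gave IC50 values.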

Toledo cells = assay: Cell proliferation assay (MTS), Toledo cells; settings: Homo sapiens, 72 h
In short: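 Toledo cells (RPMI-1640, 10% FBS) seeded at 30000 cells/well, rested 4 h, then exposed 72 h at 37 °C, 5% CO2 to compound at nine final concentrations, 1.5–10000 nM. Viability by MTS (2 h), absorbance at 490 nm. IC50 from the concentration-response.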

RS4;11-BCL-2 F104L cells = assay: Cell proliferation assay (MTS), RS4;11-BCL-2 F104L engineered cells; settings: Homo sapiens, 120 h, read-out: RS4, 11 BCL2-F104L IC50
In short: as §1

RS4;11-BCL-2 D103Y cells = assay: Cell proliferation assay (MTS), RS4;11-BCL-2 D103Y engineered cells; settings: Homo sapiens, 72 h, read-out: RS4, 11 BCL2-D103Y IC50
Description: MTS testing kit was purchased from Promega (Madison, WI, USA). The RPMI-1640, Fetal bovine serum and Penicillin-Streptomycin were purchased from BI (Biological Industries, Beit Haemek, Israel). Puromycin was purchased from Beyotime (shanghai, China). Dimethyl sulfoxide (DMSO) was purchased from Sigma (St. Louis., MO, USA). RS4;11-BCL-2 G101V (Cobioer Lot. #: CBD2021063013P4), RS4;11-BCL-2 D103E (Cobioer Lot. #: CBD2021063013P4), RS4;11-BCL-2 D103Y (Cobioer Lot. #: CBD2022012101P4) and RS4;11-BCL-2 F104L (Cobioer Lot. #: CBD2021063014P4) cells were cultured in RPMI1640 supplemented with 1 ug/mL puromycin, 100 U/mL Penicillin-Streptomycin and 10% FBS.
To investigate whether a compound is able to inhibit the activity of BCL-2 mutation in cells, a mechanism-based assay using engineered cell lines stably overexpressing BCL-2 mutation (RS4;11-BCL-2 G101V, RS4;11-BCL-2 D103E, RS4;11-BCL-2 D103Y, and RS4;11-BCL-2 F104L) was developed. In this assay, the inhibition of BCL-2 mutation was reflected by the inhibition of cell proliferation of engineered RS4;11 cells. Cells were plated into 96-well plates at optimized cell density (RS4;11-BCL-2 G101V: 5000 cells/well; RS4;11-BCL-2 D103E: 7500 cells/well; RS4;11-BCL-2 D103Y: 7500 cells/well; RS4;11-BCL-2 F104L: 5000 cells/well). Plates were incubated at 37° C., with 5% CO2 for 4 h (RS4;11-BCL-2 G101V, RS4;11-BCL-2 F104L) and 24 h (RS4;11-BCL-2 D103E, RS4;11-BCL-2 D103Y), respectively. Compounds were serially diluted and added to the plates with the final concentrations of 10000, 3333.3, 1111.1, 370.4, 123.5, 41.2, 13.7, 4.6 and 1.5 nM. Plates were incubated at 37° C., with 5% CO2 for 120 h (RS4; 11-BCL-2 G101V, RS4; 11-BCL-2 F104L) and 72 h (RS4;11-BCL-2 D103E, RS4;11-BCL-2 D103Y), respectively. 20 μl MTS was added into each well and the plates were incubated at 37° C., with 5% CO2 exactly for 2 h. The absorbance was measured by a microplate reader at 490 nm. IC50 values were calculated using GraphPad Prism 8.0 software.

RS4;11-BCL-2 G101V cells = assay: Cell proliferation assay (MTS), RS4;11-BCL-2 G101V engineered cells; settings: Homo sapiens, 120 h, read-out: RS4, 11 BCL2-G101V IC50
In short: as §1

SMILES	pIC50 (RS4;11-BCL-2 D103E cells)	pIC50 (RS4;11-BCL-2 F104L cells)	pIC50 (RS4;11-BCL-2 D103Y cells)	pIC50 (RS4;11-BCL-2 G101V cells)	pIC50 (Toledo cells)
COc1ccc(CN2CCN(C3CC4(CCN(c5ccc(C(=O)NS(=O)(=O)c6cnc(NC[C@H]7CC[C@](C)(O)CC7)c([N+](=O)[O-])c6)c(Oc6cc7c(F)c[nH]c7nc6OC)c5)CC4)C3)[C@H](c3ccccc3C(C)C)C2)cc1OC [Example 7, 4-(2-((R)-4-(3,4-dimethoxybenzyl)-2-(2-isopropylphenyl)piperazin-1-yl)-7-azaspiro[3.5]nonan-7-yl)-2-((3-fluoro-6-methoxy-1H-pyrrolo[2,3-b]pyridin-5-yl)oxy)-N-((6-((((1r,4r)-4-hydroxy-4-methylcyclohexyl)methyl)amino)-5-nitropyridin-3-yl)sulfonyl)benzamide]	8.70	9.00	8.05	9.00	9.00
COc1ccc(CN2CCN(C3CC4(CCN(c5ccc(C(=O)NS(=O)(=O)c6cnc(NC[C@H]7CC[C@](C)(O)CC7)c([N+](=O)[O-])c6)c(Oc6cnc7[nH]cc(F)c7c6)c5)CC4)C3)[C@H](c3ccccc3C(C)C)C2)cc1OC [Example 74, 4-(2-((R)-4-(3,4-dimethoxybenzyl)-2-(2-isopropylphenyl)piperazin-1-yl)-7-azaspiro[3.5]nonan-7-yl)-2-((3-fluoro-1H-pyrrolo[2,3-b]pyridin-5-yl)oxy)-N-((6-((((1r,4r)-4-hydroxy-4-methylcyclohexyl)methyl)amino)-5-nitropyridin-3-yl)sulfonyl)benzamide]	9.00	–	8.30	9.00	9.00
COc1cc(CN2CCN(C3CC4(CCN(c5ccc(C(=O)NS(=O)(=O)c6cnc(NC[C@H]7CC[C@](C)(O)CC7)c([N+](=O)[O-])c6)c(Oc6cc7c(F)c[nH]c7nc6OC)c5)CC4)C3)[C@H](c3ccccc3C(C)C)C2)ncc1C1CC1 [Example 249, 4-(2-((R)-4-((5-cyclopropyl-4-methoxypyridin-2-yl)methyl)-2-(2-isopropylphenyl)piperazin-1-yl)-7-azaspiro[3.5]nonan-7-yl)-2-((3-fluoro-6-methoxy-1H-pyrrolo[2,3-b]pyridin-5-yl)oxy)-N-((6-((((1r,4r)-4-hydroxy-4-methylcyclohexyl)methyl)amino)-5-nitropyridin-3-yl)sulfonyl)benzamide]	9.00	–	8.30	9.00	–
COc1cc(CN2CCN(C3CC4(CCN(c5ccc(C(=O)NS(=O)(=O)c6cnc(NC[C@H]7CC[C@](C)(O)CC7)c([N+](=O)[O-])c6)c(Oc6cnc7[nH]cc(F)c7c6)c5)CC4)C3)[C@H](c3ccccc3C(C)C)C2)cnc1C1CC1 [Example 255, 4-(2-((R)-4-((6-cyclopropyl-5-methoxypyridin-3-yl)methyl)-2-(2-isopropylphenyl)piperazin-1-yl)-7-azaspiro[3.5]nonan-7-yl)-2-((3-fluoro-1H-pyrrolo[2,3-b]pyridin-5-yl)oxy)-N-((6-((((1r,4r)-4-hydroxy-4-methylcyclohexyl)methyl)amino)-5-nitropyridin-3-yl)sulfonyl)benzamide]	8.52	8.52	9.00	9.00	9.00

The next lines start with results.

pIC50 (RS4;11-BCL-2 D103E cells)	pIC50 (RS4;11-BCL-2 F104L cells)	pIC50 (RS4;11-BCL-2 D103Y cells)	pIC50 (RS4;11-BCL-2 G101V cells)	SMILES	pIC50 (Toledo cells)
9.00	8.52	8.00	9.00	COc1ccc(CN2CCN(C3CC4(CCN(c5ccc(C(=O)NS(=O)(=O)c6cnc(NC[C@H]7CC[C@](C)(O)CC7)c([N+](=O)[O-])c6)c(Oc6cc7c(F)c[nH]c7nc6OC)c5)CC4)C3)[C@H](c3ccccc3C(C)C)C2)cn1 [Example 119, 2-((3-fluoro-6-methoxy-1H-pyrrolo[2,3-b]pyridin-5-yl)oxy)-N-((6-((((1r,4r)-4-hydroxy-4-methylcyclohexyl)methyl)amino)-5-nitropyridin-3-yl)sulfonyl)-4-(2-((R)-2-(2-isopropylphenyl)-4-((6-methoxypyridin-3-yl)methyl)piperazin-1-yl)-7-azaspiro[3.5]nonan-7-yl)benzamide]	9.00
9.00	–	8.10	–	COc1nc2[nH]cc(F)c2cc1Oc1cc(N2CCC3(CC2)CC(N2CCN(Cc4ccnc5c4CCO5)C[C@H]2c2ccccc2C(C)C)C3)ccc1C(=O)NS(=O)(=O)c1cnc(NC[C@H]2CC[C@](C)(O)CC2)c([N+](=O)[O-])c1 [Example 190, 4-(2-((R)-4-((2,3-dihydrofuro[2,3-b]pyridin-4-yl)methyl)-2-(2-isopropylphenyl)piperazin-1-yl)-7-azaspiro[3.5]nonan-7-yl)-2-((3-fluoro-6-methoxy-1H-pyrrolo[2,3-b]pyridin-5-yl)oxy)-N-((6-((((1r,4r)-4-hydroxy-4-methylcyclohexyl)methyl)amino)-5-nitropyridin-3-yl)sulfonyl)benzamide]	–
9.00	–	9.00	–	COc1nc2[nH]cc(F)c2cc1Oc1cc(N2CCC3(CC2)CC(N2CCN(Cc4ccnc5c4NCCO5)C[C@H]2c2ccccc2C(C)C)C3)ccc1C(=O)NS(=O)(=O)c1cnc(NC[C@H]2CC[C@](C)(O)CC2)c([N+](=O)[O-])c1 [Example 192, 4-(2-((R)-4-((2,3-dihydro-1H-pyrido[2,3-b][1,4]oxazin-8-yl)methyl)-2-(2-isopropylphenyl)piperazin-1-yl)-7-azaspiro[3.5]nonan-7-yl)-2-((3-fluoro-6-methoxy-1H-pyrrolo[2,3-b]pyridin-5-yl)oxy)-N-((6-((((1r,4r)-4-hydroxy-4-methylcyclohexyl)methyl)amino)-5-nitropyridin-3-yl)sulfonyl)benzamide]	–
–	9.00	8.10	9.00	COc1nc2[nH]cc(F)c2cc1Oc1cc(N2CCC3(CC2)CC(N2CCN(Cc4ccncc4)C[C@H]2c2ccccc2C(C)C)C3)ccc1C(=O)NS(=O)(=O)c1cnc(NC[C@H]2CC[C@](C)(O)CC2)c([N+](=O)[O-])c1 [Example 239, 2-((3-fluoro-6-methoxy-1H-pyrrolo[2,3-b]pyridin-5-yl)oxy)-N-((6-((((1r,4r)-4-hydroxy-4-methylcyclohexyl)methyl)amino)-5-nitropyridin-3-yl)sulfonyl)-4-(2-((R)-2-(2-isopropylphenyl)-4-(pyridin-4-ylmethyl)piperazin-1-yl)-7-azaspiro[3.5]nonan-7-yl)benzamide]	9.00
–	8.52	8.52	9.00	COc1cc(CN2CCN(C3CC4(CCN(c5ccc(C(=O)NS(=O)(=O)c6cnc(NC[C@H]7CC[C@](C)(O)CC7)c([N+](=O)[O-])c6)c(Oc6cc7c(F)c[nH]c7nc6OC)c5)CC4)C3)[C@H](c3ccccc3C(C)C)C2)cnc1C1CC1 [Example 254, 4-(2-((R)-4-((6-cyclopropyl-5-methoxypyridin-3-yl)methyl)-2-(2-isopropylphenyl)piperazin-1-yl)-7-azaspiro[3.5]nonan-7-yl)-2-((3-fluoro-6-methoxy-1H-pyrrolo[2,3-b]pyridin-5-yl)oxy)-N-((6-((((1r,4r)-4-hydroxy-4-methylcyclohexyl)methyl)amino)-5-nitropyridin-3-yl)sulfonyl)benzamide]	9.00
